Reference: patent US11197856B2, “Bicyclic compounds and methods for their use in treating autism” (priority 2013, dated 2021)

Experiments:
layer 5 cortical neurons = assay: Intracellular whole-cell recordings of spontaneous EPSCs in acute brain slices; format: in vivo, mice; conditions: MeCP2-/y animals; 20 mg/kg daily; vs vehicle
[1] = system: fmr1-knockout and wild-type animals; assay: Contextual fear conditioning (freezing behavior); format: in vivo, mice
From the text: Fear conditioning to either a cure or a context represents a form of associative learning that has been well used in many species. The dependent measure used in contextual (delay) fear conditioning is a freezing response that takes place following pairing of an unconditioned stimulus (foot shock), with a conditioned stimulus (CS), a particular context and/or such a cue. If in a conditioning context one administers a foot shock that is paired with atone, there will be learning not only to the tone, but also to the context.
Contextual fear conditioning is a bask conditioning procedure. It involves taking an animal and placing it in a novel environment, providing an aversive stimulus, and then removing it. […] Freezing is a response to fear, which has been defined as “absence of movement except for respiration.” This freezing behavior may last from seconds to minutes depending on the strength of the aversive stimulus, the number of presentations, and the degree of learning achieved by the subject.
The device used in this study is depicted in FIG. 27. An unconditioned stimulus (mild shock to the feet) was applied, and the conditioned stimulus was a tone applied along with the shock to the feet. Under these conditions, the animals associate the unconditioned stimulus with both the conditioned stimulus and the context of the stimuli. Animals were tested for […].

adult MeCP2+/- mice = assay: Ocular dominance (OD) plasticity, optical imaging of intrinsic signals; format: in vivo; conditions: 4 days monocular deprivation
Procedure: Adult (>P60) wild type (SVEV or BL6) and MeCP2 (+/−) mutant females (BL6) are used for this experiment. The wild type control group is composed of both wild type littermates of MeCP2+/− females or wild type age matched SVEV females. For monocular deprivation, animals are anesthetized with Avertin (0.016 ml/g) and the eyelids of one eye is sutured for 4 days. Prior to imaging, the suture is removed and the deprived eye re-opened. Only animals in which the deprivation sutures are intact and the condition of the deprived eye appears healthy are used for the imaging session. For cG-2-AllylP signaling activation, a solution containing cG-2-AllylP is injected intra-peritoneally (IP) daily for the entire period of deprivation. For the imaging sessions mice are anesthetized with urethane (1.3 g/kg; 20% of the full dosage is administered IP each 20-minutes up to the final dosage, 0.02 ml of cloroprothixene 1% is also injected together with the first administration). The skull is exposed and a custom-made plate is glued on the head to minimize movement. The skull is thinned over VI with a dremel drill and covered with an agarose solution in saline (1.3%) and a glass coverslip. During the imaging session, the animal is constantly oxygenated, its temperature maintained with a heating blanket and the eyes periodically treated with silicone oil; physiological conditions are constantly monitored. […]

ERK1/2 = assay: Phosphorylated ERK by Western blot; format: in vivo, mice; conditions: full brain lysates; fmr1-knockout animals vs vehicle
Procedure: Phosphorylation levels of ERK1/2 and Akt of full brain lysates were evaluated using Western blots. The mice were sacrificed and the brains removed 12 days after the last injection, and immediately after the last behavioral test. Other studies measured pERK and pAkt in blood lymphocytes. The results of Western analysis were normalized to the amount of GAPDH protein seen in each blot.

[2] = system: genetic markers related to neuroplasticity; assay: PBBI in rats: neuroplasticity mRNA arrays; format: in vivo
From the text: The unilateral frontal PBBI model, which mimics the ballistic dynamics of a bullet or fragment wound to the head (Williams, 2003; Williams, 2006), was induced by stereotactic insertion of a custom probe through the right frontal cortex. A temporary cavity was formed by the rapid inflation/deflation (i.e. <40 msec) of an elastic balloon attached to the end of the probe. The PBBI apparatus consisted of a computer-controlled hydraulic pressure generator (Mitre Corp McLean, Va.), a PBBI probe and a stereotaxic frame equipped with a custom-designed probe holder as previously described (Lu, 2009; Williams, 2003). The injury severity was determined by the size of the balloon under control of the computerized hydraulic pressure. The balloon diameter calibrated to 0.63 cm expansion represented 10% of the total rat brain volume thus expressing a 10% PBBI. All surgeries were done under anaesthesia. Groups tested: Sham+vehicle, PBBI+vehicle, PBBI+cG-2-AllylP (30 mg/kg by oral gavage, 30 min post-injury, and again once daily until endpoint). AU procedures were approved by the Institutional Animal Care and Use Committee of WRAIR. Animals were housed in a facility accredited by the AAALAC.
cG-2-AllylP (or vehicle) was administered to the animals via oral gavage at a dose of 30 mg/kg.
cDNA was generated. From total RNA from individual animals using random primers. cDNA was plated unto a targeted PCR array produced by SA Biosciences and product was detected using SyBr green fluorescence. Ct levels were normalized to beta actin. Injury results were compared to sham to evaluate relative quantities (RQ) (n=6 per group).

## C=CC[C@]12CCCN1C(=O)CNC2=O [cG-2-AllylP, (8aS)-Allyl-hexahydropyrrolo[1,2-a]pyrazine-1,4-dione]
Layer 5 cortical neurons
  EPSC amplitude: significantly larger in amplitude
[1]
  time spent in freezing behavior: substantial and statistically significant increase in the time spent in freezing behavior
Adult MeCP2+/- mice
  OD plasticity: reduces the OD plasticity
ERK1/2
  ERK phosphorylation: significantly reduced ERK phosphorylation
[2]; 24 hr. time point after PBBI
  Gria 4 mRNA expression: significantly increased Gria 4
[2]; after PBBI
  BDNF mRNA expression (trend): decreased BDNF
  Crem mRNA expression (trend): decreased Crem
  NTF3 mRNA expression (trend): decreased NTF3
  NTF4 mRNA expression (trend): decreased NTF4
  Pcdh8 mRNA expression (trend): decreased Pcdh8
  Pim1 mRNA expression (trend): decreased Pim1
  Ppp3ca mRNA expression (trend): increased Ppp3ca
